These results are taken from patent US10351525B2, “Beta lactamase inhibitors” (Oxford University Innovation Limited, priority 2014, dated 2019).

The target in one experiment is T1, hACE-2 (Homo sapiens, UniProt Q9BYF1).
T1 construct: purchased R&D Systems 933-ZN
Description: hACE 2 assay. On Inhibition verdict: key: N.I.—not inhibited. The format is biochemical. The following applies: for remaining activity at 100 µM: read-out: RA (residual activity). Here is the method:
(§1) To investigate the selectivity of ML302/ML302F for bacterial MBLs, activity was tested against TEM-1 (a Class A SBL), PBP-5 (penicillin-binding protein 5 or dacA) and PBP-6 (penicillin-binding protein 6, or dacC) from E. coli, hHAT (human histone acetyltransferase) and hHDAC (human histone deacetylase). TEM-1, PBP-5 and -6 and hHAT are known to be inhibited by rhodanines. Selectively against hACE-2 (Angiotensin converting enzyme 2) and hHAGH (Hydroxyacylglutathione hydrolase, human Glyoxylase II) was also tested.
(§2) The inhibition analyses for human histone acetyltransferases (HAT), HDAC hHDAC (human histone deacetylase), hACE-2 (Angiotensin converting enzyme 2) and hHAGH (Hydroxyacylglutathione hydrolase, human Glyoxylase II) were performed using the commercially available HAT Assay Kit (Active Motif, catalogue No. 56100 (2009)), hHDAC (Active Motif, catalogue No. 56200 (2013)), hACE-2 (ACE-2 (R&D Systems) and hHAGH ((R&D Systems).
hACE 2 Assay (R&D systems):
• Assay Buffer: 75 mM Tris, 1 M NaCl, pH 7.5 • Recombinant Human ACE-2 (rhACE-2) (Catalog #933-ZN) • Substrate: MCA-Tyr-Val-Ala-Asp-Ala-Pro-Lys(DNP)-OH (Catalog # ES007), 10 mM stock in DMSO • F16 Black Maxisorp Plate (Nunc, Catalog #475515) • Fluorescent Plate Reader (Model: SpectraMax Gemini EM by Molecular Devices) or equivalent Assay: 1. Dilute rhACE-2 to 0.2 ng/μL in Assay Buffer. 2. Dilute Substrate to 40 μM in Assay Buffer. 3. Load in a black well plate 50 μL of […], and start the reaction by adding 50 μL of 40 μM Substrate. As a control load […] Substrate with 50 μL of Assay Buffer. 4. Read at excitation and emission wavelengths of 320 nm and 405 nm (top read), respectively in kinetic mode for 5 minutes. 5.

The next experiment deals with hHDAC. Description: Inhibition studies hHDAC. On Inhibition verdict: key: N.I.—not inhibited. The format is biochemical, human. The protocol:
as §1, §2

For another experiment, the target named is T2, NDM-1 (Klebsiella pneumoniae, UniProt C7C422).
T2 construct: made in house; host or cells: Escherichia coli
Description: biochemical. The protocol:
(§3) Recombinant forms of NDM-1, NDM-1 M67C, VIM-1, VIM-2, SPM-1, IMP-1 and BcII MBLs were produced in Escherichia coli as described in J. Med. Chem. 56, 6945-6953 (2013) and Makena et al Chem MechCHem 8, 1923-9 (2013). Purified VIM-2 protein was dialysed into fresh crystallization buffer (50 mM HEPES pH 7.5, 150 mM NaCl and […], concentrated to 7.5 mg/mL and used for crystallographic analyses.
(§4) Kinetic and inhibition analyses and UV-VIS studies^16 against bacterial MBLs were performed as described by Van Berkel et al in J. Med. Chem. 56, 6945-6953 (2013) and Makena et al Chem MechCHem 8, 1923-9 (2013).
(§5) The experiments were performed by using a NovaStar microplate reader (using path length correction) and were performed at r.t. (24-25° C.). All enzymes and substrates were dissolved in the assay buffer: 50 mM HEPES-NaOH buffer (pH 7.2) supplemented with 1 μg/mL BSA (to minimize the denaturation of the enzyme), 1 μM ZnSO4 and 0.01% Triton 100. Screening was carried out against a panel of MBLs including NDM-1, VIM-1, VIM-2, SPM-1 (Sao Paulo MBL-1) and IMP-1 and the non-clinically relevant model MBL Bacillus cereus (BcII).
(§6) The kinetic values determined were the means from at least three independent measurements. […] The IC50 values were determined from the plot of activity (steady state rate) versus inhibitor concentration using the same software. […]

A further experiment deals with T3, IMP-1 (Serratia marcescens, UniProt P52699).
T3 construct: made in house; host or cells: Escherichia coli
Description: MBL screening assay (IC50), IMP-1. The format is biochemical. The protocol: as §3, §4, §5, §6

In the next experiment the target is T4, VIM-2 (Escherichia coli, UniProt Q5U7L7).
T4 construct: made in house; host or cells: Escherichia coli
Description: MBL screening assay (IC50), VIM-2. Type of experiment: biochemical. Here is the method:
as §3, §4, §5
The kinetic values determined were the means from at least three independent measurements. At least six different concentrations of the substrate or inhibitor were used to determinate the kinetic parameters (KM, kcat and IC50). Determination of the steady state kinetic parameters for the hydrolysis of different substrates (KM and kcat) was performed by fitting the initial velocity data to the Michaelis-Menten equation using the software package Graph Prism 5.01. The IC50 values were determined from the plot of activity (steady state rate) versus inhibitor concentration using the same software.
IC50 values (concentration required to affect 50% inhibition of enzyme activity) were determined by preincubation of the appropriate amount of enzyme with the desired compound in the assay buffer for 10 min at r.t. prior to the initiation of the assay by the addition of the substrate. The compounds for inhibition study were prepared in 1 to 100 mM DMSO stock solutions.

Experiment [1] concerns MBL producing Escherichia coli and Klebsiella pneumoniae strains. Description: Potentiation of meropenem. Type of experiment: cell-based. The following applies: for Inhibitor concentration that conferred meropenem sensitivity (lowest tested): IMP producers; for Synergy with meropenem: MBL producing strains. Here is the method:
Further studies were carried out to determine if ML302F/ML302 potentiates β-lactam antibiotic activity in clinically derived strains containing IMP-1, IMP-4, VIM-4 or NDM-1, which are the most commonly observed MBLs in clinical isolates. All strains producing MBLs were confirmed as resistant to meropenem at the Clinical and Laboratory Standards Institute (U.S.A.) defined breakpoint of 8 μg/mL for Enterobacteriace (see Table 2 below). The minimum inhibitory concentration (MIC) of meropenem against wildtype and MBL producing Escherichia coli and Klebsiella pneumoniae strains was determined with and without increasing concentrations of ML302 or ML302F. Clinical and Laboratory Standards Institute. 2012. Methods for dilution antimicrobial susceptibility tests for bacteria that grow aerobically; 9th ed. Approved standard M07-A9. CLSI, Wayne, Pa.; and Clinical and Laboratory Standards Institute. 2012. Performance standards for antimicrobial susceptibility testing; 22nd informational supplement M100-S22. CLSI, Wayne, Pa.

Another experiment concerns the target T5, BcII (Bacillus cereus, UniProt P04190).
T5 construct: made in house; host or cells: Escherichia coli
Description: MBL screening assay (IC50), BcII. The format is biochemical. Here is the method:
as §3, §4, §5, §6

T1 sequence (Q9BYF1 18-740 limits assumed): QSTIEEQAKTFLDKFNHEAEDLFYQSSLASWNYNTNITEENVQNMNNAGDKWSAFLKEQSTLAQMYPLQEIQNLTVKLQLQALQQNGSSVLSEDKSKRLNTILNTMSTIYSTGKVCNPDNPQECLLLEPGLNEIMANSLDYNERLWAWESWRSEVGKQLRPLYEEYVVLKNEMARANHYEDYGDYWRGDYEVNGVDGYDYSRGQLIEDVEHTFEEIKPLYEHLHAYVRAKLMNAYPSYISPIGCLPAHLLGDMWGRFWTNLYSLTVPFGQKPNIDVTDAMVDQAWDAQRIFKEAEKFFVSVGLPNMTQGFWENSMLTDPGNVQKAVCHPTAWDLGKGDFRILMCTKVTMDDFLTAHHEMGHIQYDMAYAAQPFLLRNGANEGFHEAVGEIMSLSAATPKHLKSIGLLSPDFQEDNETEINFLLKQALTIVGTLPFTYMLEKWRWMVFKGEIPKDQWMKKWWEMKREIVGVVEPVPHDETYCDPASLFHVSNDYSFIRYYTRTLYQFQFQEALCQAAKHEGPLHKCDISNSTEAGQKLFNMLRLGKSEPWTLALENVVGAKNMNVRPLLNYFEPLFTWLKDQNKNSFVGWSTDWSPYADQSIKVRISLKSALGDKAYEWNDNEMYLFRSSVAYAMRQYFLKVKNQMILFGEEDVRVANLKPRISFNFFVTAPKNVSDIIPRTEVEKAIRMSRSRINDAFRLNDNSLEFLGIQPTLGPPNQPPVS
T5 sequence (P04190 31-257): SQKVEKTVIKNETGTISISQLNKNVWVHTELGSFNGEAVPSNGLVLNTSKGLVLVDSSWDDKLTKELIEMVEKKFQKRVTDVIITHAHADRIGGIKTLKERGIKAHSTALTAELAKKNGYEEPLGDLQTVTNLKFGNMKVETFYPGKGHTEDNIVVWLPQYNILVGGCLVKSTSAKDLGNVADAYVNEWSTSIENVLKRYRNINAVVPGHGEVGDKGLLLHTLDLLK
T3 sequence (P52699 19-246 limits assumed): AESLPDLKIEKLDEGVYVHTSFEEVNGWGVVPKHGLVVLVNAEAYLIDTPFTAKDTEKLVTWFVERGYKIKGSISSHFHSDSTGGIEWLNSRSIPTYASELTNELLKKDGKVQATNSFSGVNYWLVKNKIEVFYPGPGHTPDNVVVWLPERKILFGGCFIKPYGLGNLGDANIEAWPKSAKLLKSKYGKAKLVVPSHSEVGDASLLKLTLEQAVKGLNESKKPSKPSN

What is called IC50 is the point on the concentration scale where inhibition reaches its midpoint. A lower IC50 goes with higher potency. On to `CN1CCN(NC(=O)CN2C(=O)C(=Cc3c(Cl)ccc(Cl)c3Cl)SC2=S)CC1` (mixture of isomers) [ML302, N-(4-Methylpiperazin-1-yl)-2-(4-oxo-2-thioxo-5-(2,3,6-trichlorobenzylidene)thiazolidin-3-yl)acetamide], for which the “RA (residual activity)” value at hACE-2 (100 μM) was 73 ± 9 ^ %; in the experiment with hHDAC, 108 ± 3%. On hACE-2 (100 μM), the remaining activity at 100 µM was about 75%. Also, in the experiment on hHDAC, the Inhibition verdict result is recorded as “N.I”. Also, the half-maximal inhibitory concentration (IC50) on NDM-1 turned out to be 9440 ± 1440 nM; at IMP-1, 175 ± 60 nM; against VIM-2 (IC50, VIM-2), 490 ± 180 nM; at VIM-2 (IC50 value against VIM-2 obtained using this assay, VIM-2), 498 ± 18 nM; at BcII, 500 ± 150 nM. The “Inhibitor concentration that conferred meropenem sensitivity (lowest tested)” value in experiment [1] worked out at 10 µg/mL. In experiment [1], the Synergy with meropenem entry was “Synergy between ML302 and meropenem was observed for all MBL producing strains”. Further, in experiment [1] (read-out: Inhibitor concentration at which clinically relevant meropenem sensitivity (MIC<8 μg/mL) achieved), the Inhibitor concentration giving meropenem sensitivity was 50 µg/mL.
As for `O=C(O)C(S)=Cc1c(Cl)ccc(Cl)c1Cl` (racemic) [ML302F, 2-Mercapto-3-(2,3,6-trichlorophenyl)acrylic acid], the Inhibition verdict entry on hACE-2 and with hHDAC was “N.I” in each case. The remaining activity at 100 µM at hACE-2 (100 μM) was determined as 99 ± 4%. Besides, the “RA (residual activity)” value with hHDAC worked out at 116 ± 7%. Besides, the IC50 against NDM-1 was found to be 1050 ± 300 nM; against IMP-1, 2.88 nM; against VIM-2 (IC50, VIM-2) it was 300 ± 90 nM; against BcII, 20 nM. Further, the “Meropenem MICs in the presence of ML302F relative to the same ML302 concentration, fold higher” value in experiment [1] was “up to 8 fold”. For the same compound, in experiment [1], the “Inhibitor concentration that conferred meropenem sensitivity (lowest tested)” value is 10 µg/mL. In experiment [1], the Synergy with meropenem entry was “displayed synergy with meropenem”.
